# Laboratory results from paper PMC6749073 (Frontiers in Pharmacology, 2019).
# What was measured:
# normal ICR mice = assay: LD50 in normal ICR mice; format: in vivo; settings: tail vein injection
# Method: (§1) After injection, the animals’ condition was monitored every day for over 1 week by an observer who was blinded to the dose and drug allocation.
# (§2) Estimates for ED50 and LD50 were calculated through nonlinear regression, data were fitted to a sigmoidal dose-response relationship in Prism (version 4.0a; GraphPad Software, Inc., San Diego, CA). The data were fitted to the equation:
# (§3) Y=Ymin+Ymax−Ymin/1+10^(LogED50−X)∗HillSlope
# (§4) where X is the logarithm of concentration, and Y is the response.
# [1] = system: A549, NCI-H292, NCI-H460, and LTEP-A-2 xenograft models; assay: ED50 (50% reduction of xenograft tumor volume) in nude mice; format: in vivo; settings: dose reducing xenograft tumor volume by 50%; average over A549, NCI-H292, NCI-H460, and LTEP-A-2 xenograft models
# Method: as §1, §2, §3, §4
# A549 = assay: MTT cell viability assay, A549; format: cell-based, human; settings: 48 h
# Method: (§5) Cells were seeded at a density of 1 × 10^4 cells per well in 96-well plates. The following day, these cells were washed with PBS and exposed to different concentrations of testing compounds in culture medium for 48 h. MTT solution (10 μl at 5 mg/ml) was added to each well. After 4 h of incubation at 37°C, the medium was removed, and the insoluble precipitate was dissolved in 100 μl DMSO (Sigma, St. Louis, MO, USA). The absorbance of the dissolved solution at 490 nm was measured using a microplate reader (TECAN A-5082; Megllan, Austria). Cell viability percentages were calculated by dividing the mean optical density (OD) of compound-containing wells by that of the control wells. Each experiment was replicated three times. The IC50 of testing drugs was calculated with Statistical Product and Service Solutions software (SPSS, version 16.0).
# H292 = assay: MTT cell viability assay, H292; format: cell-based, human; settings: 48 h
# Method: as §5
# H460 = assay: MTT cell viability assay, H460; format: cell-based, human; settings: 48 h
# Method: as §5
# HCC827 = assay: MTT cell viability assay, HCC827; format: cell-based, human; settings: 48 h
# Method: as §5
# H1299 = assay: MTT cell viability assay, H1299; format: cell-based, human; settings: 48 h
# Method: as §5
# LTEP-A-2 = assay: MTT cell viability assay, LTEP-A-2; format: cell-based, human; settings: 48 h
# Method: as §5
# H1650 = assay: MTT cell viability assay, H1650; format: cell-based, human; settings: 48 h
# Method: as §5
# Calu-3 = assay: MTT cell viability assay, Calu-3; format: cell-based, human; settings: 48 h
# Method: as §5
# [2] = system: BEAS-2B normal human lung epithelial cell line; assay: MTT cell viability assay, BEAS-2B; format: cell-based
# Method: as §5
# LTEP-A-2 xenograft tumor = LTEP-A-2 xenograft tumor growth in nude mice; format: in vivo; settings: comparable to DDP 6 mg/kg and CBP 60 mg/kg
# [3] = Body weight and tolerability of A549 and H292 xenograft mice; format: in vivo
# Method: (§7) Cells in logarithmic growth were washed with PBS and suspended in serum-free medium. Portions of the suspension (5 × 10^6 cells in 0.1 ml/mouse) were mixed at a 3:1 ratio with Matrigel basement membrane matrix and injected subcutaneously into the mice. Following 2 weeks of growth, tumor tissues were cut into multiple 2 × 2 × 2 mm^3 pieces and implanted using a range trocar subcutaneously (s.c. injection) into the left forepaw armpit of each mouse ([Jiang et al., 2017]). Treatment with pharmacology was started when the tumors reached an average volume of 100–200 mm^3. The mice were randomly divided into six groups (n = 14/group).
# (§8) Body weight and tumor size were assessed every 3 days. Tumor size was measured using a caliper, the volumes were calculated according to the following standard formula: V = (L × W^2)/2 (V = tumor volume, L = largest diameter of tumor, W = smallest diameter of tumor). On day 25, all mice were sacrificed by cervical dislocation, and the tumors were removed and weighed.
# rats = assay: Renal pathology (H&E) in rats; format: in vivo; settings: 7.5, 15, and 30 mg/kg twice a week for 4 weeks
# Method: Total 30 rats were employed in the experiments, 20 rats were euthanized with isoflurane 3 days after the last administration, and the kidneys were excised and examined by the H&E staining, and the remaining 10 rats were handled after the recovery period (two weeks after the last administration). We found drug-related renal changes were appeared in the rats, especially in the high dose group (30 mg/kg). Of all the changes, the renal tubular epithelium denaturation/regeneration and tubular dilation are the most obvious, which are early appeared after 7.5 mg/kg treatment at both last administration and during recovery period.
# [4] = Biodistribution of Pt by atomic absorption spectrometry in A549 xenograft nude mice; format: in vivo; settings: 6 h after administration; diplatin 120 mg/kg vs CBP 70 mg/kg (equivalent Pt dose), i.v.
# Method: At each time point of 10 min, 2 h, 6 h, and 24 h after administration, six mice were sacrificed. The tumors, organs/tissues, and blood were immediately collected. Then, Pt concentration was measured by atomic absorption spectrometry, counting the weight/volume of the tumors, tissues, organs, or blood.
# At each time point of 10 min, 2 h, 6 h and 24 h after administration, 6 mice were sacrificed. The tumors, organ/tissue, and blood were immediately collected. Then, Pt concentration was measured by atomic absorption spectrometry, counting the weight/volume of the tumors, tissues or organs/blood.
# [5] = Pharmacokinetic and toxicokinetic characterization in Beagle dogs; format: in vivo; settings: single dose 10, 20, 40 mg/kg
# From the text: Furthermore, AI was employed to evaluate the accumulated toxicity of the two complexes.
# H292 cells = assay: Cell cycle by PI flow cytometry, H292; format: cell-based, human; settings: diplatin 50 μM, DDP 5 μM, CBP 100 μM
# Method: (§6) Then, the cells were trypsinized, washed with PBS, and fixed in 1.5 ml 95% ethanol and left at 4°C overnight. They were then incubated with RNase and stained with propidium iodide (PI) (Multi Sciences Biotech Co., Ltd). PI absorbance was determined using a Cytomics FC500 Flow Cytometer (Beckman Coulter, USA).
# LTEP-A-2 cells = assay: Cell cycle by PI flow cytometry, LTEP-A-2; format: cell-based, human; settings: diplatin 50 µM, DDP 5 µM, CBP 100 µM
# Method: as §6
# H460 cells = assay: Cell cycle by PI flow cytometry, H460; format: cell-based, human; settings: diplatin 50 µM, DDP 5 µM, CBP 100 µM
# Method: as §6
# [6] = system: VEGF, p53, and Bax expression in the xenograft A549 and H292 lung tumor tissue; assay: Immunohistochemistry of xenograft tumor sections; format: in vivo, mice
# Method: All tumor tissues were harvested and fixed in 4% buffered formalin. After 72 h, tumor tissues were embedded in paraffin and cut into 4 μm sections for immunohistochemistry assays. The streptavidin–biotin complex (SABC) method was used for immunohistochemical staining. Lung tissue sections from mice with no intervention were used as controls. The section slides were baked in an oven at 60°C for 1 h, washed in xylene, and hydrated in different concentrations of alcohol. Subsequently, endogenous peroxidase activity was quenched with 3% hydrogen peroxide for 10 min. To unmask the antigen, the slides were submerged in citrate buffer (0.01 M, pH 6.0) at 95°C for 5 min. The slides were blocked for 20 min with normal goat serum blocking solution. Primary antibodies were incubated at 4°C overnight. Primary antibody dilutions were as follows: 1:200 for VEGF, p53, and Bax. Immunocomplexes were visualized with 3,3′-diaminobenzidine (DAB), and the density was measured with the DP2-BSW software (Olympus, Tokyo, Japan).
# A549/DDP xenograft tumor = settings: diplatin 120 mg/kg vs DDP 6 mg/kg and CBP 60 mg/kg
# Method: as §7, §8
compound,measurement,setting,value
CCN(CC)CCCCC1C(=O)[O][Pt][O]C1=O.N[C@@H]1CCCC[C@H]1N.O=P(O)(O)O [Diplatin],Mice LD50,normal ICR mice,496 mg/kg
same,Mice ED50,[1],52.0 mg/kg
same,IC50,A549,102 µM
same,IC50,H292,30.9 µM
same,IC50,H460,40.7 µM
same,IC50,HCC827,25 µM
same,IC50,H1299,57.5 µM
same,IC50,LTEP-A-2,24.6 µM
same,IC50,H1650,36.6 µM
same,IC50,Calu-3,161 µM
same,IC50,"[2]; BEAS-2B normal lung epithelial cells, MTT, 48 h",47.9 µM
same,suppression of the viability of BEAS-2B cells compared to DDP,[2]; vs DDP,threefold less suppression
same,effect on LTEP-A-2 xenograft tumor volume and weight,LTEP-A-2 xenograft tumor,significant inhibition on xenograft tumor volume and weight
same,effect on body weight,[3]; diplatin 30 mg/kg and 60 mg/kg,no observable effects
same,reduction of body weight by day 25,"[3]; diplatin 120 mg/kg, CBP 60 mg/kg, every 3 days i.v.",14.38%
same,renal pathology in rats,rats,nephrotoxicity
same,"Pt accumulation in the kidneys, times higher than CBP",[4],2.2 times
same,time of maximum platinum levels in the plasma,[5],0.33 h
same,effect on cell cycle distribution,H292 cells,failed to arrest any portion of the cell cycle
same,effect on cell cycle distribution,LTEP-A-2 cells,significant accumulation of cells in G2/M phase
same,effect on cell cycle distribution,H460 cells,failed to arrest the cells in the G2/M phase
same,VEGF expression in tumor sections compared to the control,[6]; 120 mg/kg,lower expression of VEGF
same,p53 and Bax expression in the A549 and H292 tumor sections,[6]; 120 mg/kg,significantly enhanced
same,effect on p53 expression in tumor sections compared with DDP and CBP treatment,[6]; diplatin 120 mg/kg vs DDP and CBP,nearly two-fold more potent
same,antitumor activity in A549/DDP xenograft tumor,A549/DDP xenograft tumor,more potent antitumor activities than DDP and CBP
